Test results from patent publication US20130101582A1, “Tiki1 and Tiki2, Wnt Inhibitors” (CHILDREN'S MEDICAL CENTER CORPORATION, priority 2010, published 2013).
One block for each molecule: values may come before it.

Key:
Xenopus embryos [1] = assay: Anterior neural marker expression in morpholino-injected whole embryos (Table 2); format: in vivo; settings: stage 16
Experimental: (§1) A functional cDNA expression screen was performed using arrayed Xenopus cDNAs to identify novel genes involved in AP patterning and Wnt signaling. Procedures for embryo manipulation, reverse transcription PCR and in situ hybridization were performed as previously described (Tamai, K. et al., Nature 407, 530-535 (2000)). The Arrayed Xenopus tropicalis full length cDNAs were used for the screening as performed previously (Kato, Y. et al., Nature 418, 641-646 (2002)). cDNA pools (in the CS107 vector) that contain 96 independent clones were transcribed in vitro using SP6 polymerase, and the resulting mRNA pools were injected into the dorsal side of the embryo at 4-cell stage at the dose of 10 ng RNA/embryo. Injected embryos were scored at stage 30-31 for enlarged or diminished anterior development. The positive pools were divided into smaller pools and the same process was repeated until a single cDNA was identified.
The specific expression in and the requirement for the formation of the head organizer imply Tiki1 function in anterior neural patterning. Tiki1MO was injected with fluorescein dextran (FLD, as a lineage tracer) into one dorsal-animal blastomeres at the 8-cell stage and analyzed expression of anterior neural markers at stage 16. Tiki1 MO suppressed the expression of, in the injected half of the embryo, forebrain marker BF1 and Otx2 (Table 2). […] HA-Tiki1 mRNA injection rescued the expression of BF1, Otx2, and En2 in Tiki1MO-injected embryos (Table 2).

Xenopus embryos [2] = assay: Organizer gene expression in morpholino-injected whole Xenopus embryos (Table 1); format: in vivo; design: Whole embryos displaying change in gene expression: Reduced, Percentage (%): concentration or dose not given beside the values
Experimental: as §1
HA-Tiki1 mRNA injection rescued the effect of Tiki1MO on all head organizer genes examined (Table 1).

[3] = system: Xenopus Tiki1 protein synthesis; assay: Tiki1 protein synthesis in embryos with morpholino, Western blotting of animal caps; format: in vivo
Experimental: FIG. 4A is a gel showing that Xenopus Tiki1 protein synthesis is specifically targeted by an antisense morpholino oligonucleotide (MO). 500 pg mRNA for Tiki1-FLAG (targeted by MO) or HA-Tiki1 (resistant to MO) were injected with or without the Tiki1MO (5, 10, 20, 40 ng) into the animal pole at the 2-cell stage, and animal caps were dissected at stage 10 for Western blotting.
(§2) 20 ng of Tiki1MO was injected into two dorsal blastomeres of 8-cell stage embryos.

Xenopus embryos [4] = assay: Tiki1MO anterior development/head formation phenotype; format: in vivo; settings: 20 ng injected into two dorsal blastomeres of 8-cell stage embryos
Experimental: as §2

[5] = target: T1, Recombinant human WNT3A protein (Homo sapiens, UniProt P56704); assay: In vitro incubation of recombinant WNT3A with purified protein, Triton X-114 phase separation; format: biochemical; settings: purified protein incubated with recombinant human WNT3A
Experimental: FIG. 6G is a gel showing that recombinant WNT3A was incubated with Krm2N or Tiki2N purified from WCL (top) or from CM (bottom) and was subjected to Triton X-114 phase separation.
FIG. 6H is a gel showing that Recombinant WNT3A was incubated with Krm2N or Tiki2N or Tiki2NΔ. purified from WCL and was subjected to Triton X-114 phase separation.
(§3) Recombinant human Tiki2N, which is the ectodomain harboring the conserved Tiki domain (FIG. 6J), was purified, via tandem affinity procedures from HEK293T cell extracts or CM.

[6] = target: T1, Recombinant human WNT3A protein; assay: Acyl-biotinyl exchange (ABE) analysis of WNT3A after in vitro incubation; format: biochemical; settings: compared with WNT3A incubated with Krm2N
Experimental: FIG. 6I is a gel showing the results of ABE analysis of WNT3A after in vitro incubation with Krm2N or Tiki2N Biotinylation of WNT3A was much reduced after incubation with Tiki2N compared to that of WNT3A incubated with Krm2N.
Biotinylation of Wnt3a secreted in the presence of Tiki2 was much reduced compared to that of Wnt3a from control cells (FIG. 6C). This reduction of available thioester linkage indicates depalmitoylation of Wnt3a at a cysteine residue, e.g., C77, in the presence of Tiki2
as §3

Wnt3a = Wnt3a (Mus musculus, UniProt P27467); assay: Triton X-114 phase separation of Wnt3a secreted from Tiki-expressing cells; format: cell-based; design: expressed in transfected cells; host or cells: mouse L cells (Wnt3a-expressing); HEK293T; settings: HEK293T cells
Excerpt: FIG. 6A is a gel showing that Tiki inactivates Wnt3a by regulating Wnt3a acylation/palmitoylation. A Triton X-114 phase separation experiment is shown in 6A. […] T, total; Aq, aqueous; De, detergent.
FIG. 6B is a gel showing that Wnt3a secreted from Tiki1 or Tiki2 but not GFP-expressing HEK293T cells partitioned in the aqueous phase.
C77 palmitoylation is required for Wnt3a activity (Willert, K. et al., Nature 423, 448-452 (2003)) and binding to both Fz and LRP6 (Komekado, H. et al., Genes Cells 12, 521-534 (2007); Cong, F. et al., Development 131, 5103-5115 (2004)), while S209 acylation is critical for Wnt3a secretion (Takada, R. et al., Dev Cell 11, 791-801 (2006)). Thus Tiki proteins may affect C77 palmitoylation but not S209 acylation. The palmitate adduct at C77 is the primary contributor to Wnt3a hydrophobicity because palmitoylated Wnt3a is partitioned in the Triton X-114 detergent phase whereas Wnt3a lacking the palmitate is soluble in the aqueous phase (Willert, K. et al., Nature 423, 448-452 (2003); Komekado, H. et al., Genes Cells 12, 521-534 (2007)).

[7] = gene Chd, stage 10.5, injected in two dorsal blastomeres at 8-cell stage
[8] = gene Gsc st.13 (prechordal plate, neurula stage)

T1 sequence (P56704 19-352): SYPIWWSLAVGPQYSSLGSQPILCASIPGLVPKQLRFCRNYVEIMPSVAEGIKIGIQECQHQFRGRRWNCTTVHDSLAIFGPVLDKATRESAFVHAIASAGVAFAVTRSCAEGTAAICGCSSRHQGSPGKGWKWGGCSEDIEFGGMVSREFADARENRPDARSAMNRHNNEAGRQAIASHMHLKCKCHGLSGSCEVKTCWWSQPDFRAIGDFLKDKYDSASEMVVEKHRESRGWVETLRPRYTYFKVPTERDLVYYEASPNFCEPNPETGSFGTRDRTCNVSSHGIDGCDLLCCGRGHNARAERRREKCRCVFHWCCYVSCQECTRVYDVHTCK
Wnt3a, sequence (P27467 19-352): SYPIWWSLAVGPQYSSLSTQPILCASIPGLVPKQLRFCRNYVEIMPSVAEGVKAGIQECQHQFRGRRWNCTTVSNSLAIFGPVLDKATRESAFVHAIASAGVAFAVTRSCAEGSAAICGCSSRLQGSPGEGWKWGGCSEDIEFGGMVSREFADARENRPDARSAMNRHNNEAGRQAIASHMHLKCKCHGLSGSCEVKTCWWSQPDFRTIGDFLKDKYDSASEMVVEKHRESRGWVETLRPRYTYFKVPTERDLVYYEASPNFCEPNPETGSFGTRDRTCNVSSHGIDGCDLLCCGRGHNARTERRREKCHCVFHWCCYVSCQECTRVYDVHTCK

Molecule: Tiki1 MO: morpholino antisense oligonucleotide against Tiki1, 5′-CCAAATGATTACCATCATAGCTCAG-3′ (SEQ ID NO:13) (all phosphorodiamidate morpholino (PMO))
Whole embryos displaying change in gene expression: NC (No Change), Percentage (%) (Xenopus embryos [1]; gene BF1): 14%
Whole embryos displaying change in gene expression: Reduced, Percentage (%) (Xenopus embryos [1]; gene BF1): 23%
Whole embryos displaying change in gene expression: increased, Percentage (%) (Xenopus embryos [1]; gene BF1): 0%
Whole embryos displaying change in gene expression: Absent, Percentage (%) (Xenopus embryos [1]; gene BF1, injected into one dorsal-animal blastomere at 8-cell stage): 63%
Whole embryos displaying change in gene expression: Absent, Percentage (%) (Xenopus embryos [1]; gene En-2): 40%
Whole embryos displaying change in gene expression: NC (No Change), Percentage (%) (Xenopus embryos [1]; gene En-2): 35%
Whole embryos displaying change in gene expression: Reduced, Percentage (%) (Xenopus embryos [1]; gene En-2): 25%
Whole embryos displaying change in gene expression: increased, Percentage (%) (Xenopus embryos [1]; gene En-2): 0%
Whole embryos displaying change in gene expression: Absent, Percentage (%) (Xenopus embryos [1]; gene HoxB9): 0%
Whole embryos displaying change in gene expression: NC (No Change), Percentage (%) (Xenopus embryos [1]; gene HoxB9): 100%
Whole embryos displaying change in gene expression: Reduced, Percentage (%) (Xenopus embryos [1]; gene HoxB9): 0%
Whole embryos displaying change in gene expression: increased, Percentage (%) (Xenopus embryos [1]; gene HoxB9): 0%
Whole embryos displaying change in gene expression: Absent, Percentage (%) (Xenopus embryos [1]; gene Otx2): 35%
Whole embryos displaying change in gene expression: NC (No Change), Percentage (%) (Xenopus embryos [1]; gene Otx2): 35%
Whole embryos displaying change in gene expression: Reduced, Percentage (%) (Xenopus embryos [1]; gene Otx2): 30%
Whole embryos displaying change in gene expression: increased, Percentage (%) (Xenopus embryos [1]; gene Otx2): 0%
Whole embryos displaying change in gene expression: Absent, Percentage (%) (Xenopus embryos [2]; [7]): 0%
Whole embryos displaying change in gene expression: NC (No Change), Percentage (%) (Xenopus embryos [2]; [7]): 64%
Whole embryos displaying change in gene expression: Reduced, Percentage (%) (Xenopus embryos [2]; [7]): 36%
Whole embryos displaying change in gene expression: Absent, Percentage (%) (Xenopus embryos [2]; gene Dkk1, stage 10.5): 25%
Whole embryos displaying change in gene expression: NC (No Change), Percentage (%) (Xenopus embryos [2]; gene Dkk1, stage 10.5): 35%
Whole embryos displaying change in gene expression: Reduced, Percentage (%) (Xenopus embryos [2]; gene Dkk1, stage 10.5): 40%
Whole embryos displaying change in gene expression: Absent, Percentage (%) (Xenopus embryos [2]; [8]): 35%
Whole embryos displaying change in gene expression: NC (No Change), Percentage (%) (Xenopus embryos [2]; [8]): 33%
Whole embryos displaying change in gene expression: Reduced, Percentage (%) (Xenopus embryos [2]; [8]): 32%
Whole embryos displaying change in gene expression: Absent, Percentage (%) (Xenopus embryos [2]; gene Gsc, stage 10.5): 0%
Whole embryos displaying change in gene expression: NC (No Change), Percentage (%) (Xenopus embryos [2]; gene Gsc, stage 10.5): 34%
Whole embryos displaying change in gene expression: Reduced, Percentage (%) (Xenopus embryos [2]; gene Gsc, stage 10.5): 66%
Whole embryos displaying change in gene expression: Absent, Percentage (%) (Xenopus embryos [2]; gene Lim1, stage 10.5): 28%
Whole embryos displaying change in gene expression: NC (No Change), Percentage (%) (Xenopus embryos [2]; gene Lim1, stage 10.5): 18%
Whole embryos displaying change in gene expression: Reduced, Percentage (%) (Xenopus embryos [2]; gene Lim1, stage 10.5): 54%
Whole embryos displaying change in gene expression: Absent, Percentage (%) (Xenopus embryos [2]; gene Otx2, stage 10.5): 7%
Whole embryos displaying change in gene expression: NC (No Change), Percentage (%) (Xenopus embryos [2]; gene Otx2, stage 10.5): 33%
Whole embryos displaying change in gene expression: Reduced, Percentage (%) (Xenopus embryos [2]; gene Otx2, stage 10.5): 60%
Whole embryos displaying change in gene expression: Absent, Percentage (%) (Xenopus embryos [2]; gene Xnot, stage 10.5): 0%
Whole embryos displaying change in gene expression: NC (No Change), Percentage (%) (Xenopus embryos [2]; gene Xnot, stage 10.5): 87%
Whole embryos displaying change in gene expression: Reduced, Percentage (%) (Xenopus embryos [2]; gene Xnot, stage 10.5): 13%
Whole embryos displaying change in gene expression: Absent, Percentage (%) (Xenopus embryos [2]; gene Xnr3, stage 10.5): 0%
Whole embryos displaying change in gene expression: NC (No Change), Percentage (%) (Xenopus embryos [2]; gene Xnr3, stage 10.5): 93%
Whole embryos displaying change in gene expression: Reduced, Percentage (%) (Xenopus embryos [2]; gene Xnr3, stage 10.5): 7%
Synthesis of HA-Tiki1 ([3]; HA-Tiki1 mRNA lacks the MO complementary sequence): unable to block the synthesis
Synthesis of exogenously expressed Tiki1 (Tiki1-FLAG) ([3]; Tiki1-FLAG mRNA targeted by MO, animal caps stage 10): specifically blocked the synthesis
Injected embryos that developed anterior defects (Xenopus embryos [4]): roughly 50%

Partitioning of WNT3A in Triton X-114 phase separation after in vitro incubation [5]: became segregated in the aqueous phase
Biotinylation of WNT3A in ABE assay after in vitro incubation [6]: biotinylated to a much less extent
B1: Tiki2N: Recombinant human Tiki2N, the ectodomain harboring the conserved Tiki domain (protein)
chain: RPQPPDGGQCRPPGSQRDLNSFLWTIRRDPPAYLFGTIHVPYTRVWDFIPDNSKAAFQASTRVYFELDLTDPYTISALASCQLLPHGENLQDVLPHELYWRLKRHLDYVKLMMPSWMTPAQRGKGLYADYLFNAIAGNWERKRPVWVMLMVNSLTERDVRFRGVPVLDLYLAQQAEKMKKTTGAVEQVEEQCHPLNNGLNFSQVLFALNQTLLQQESVRAGSLQASYTTEDLIKHYNCGDLSAVIFNHDTSQLPNFINTTLPPHEQVTAQEIDSYFRQELIYKRNERMGKRVMALLRENEDKICFFAFGAGHFLGNNTVIDILRQAGLEVDHTPAGQAIHSPAPQSPAPSPEGTSTSPAPVTPAAAVPEAPSVTPTAPPEDEDPALSPHLLLPDSLSQLEEFGRQRKWHKRQSTHQRPRQFNDLWVRIEDSTTASPPPLPLQPTHSSGTAKPPFQLSDQLQQQDPPG
modifications: left off: small tags and cut ends
notes: Recombinant human Tiki2N, the ectodomain harboring the conserved Tiki domain
Partitioning of secreted Wnt3a in Triton X-114 phase separation (Wnt3a): partitioned exclusively in the aqueous phase
